We go through 1 substance from patent US20120263754A1, “Methods for Enhancing Immunogen Specific Immune Responses by Vectored Vaccines” (priority 2011, published 2012).

The subject of this experiment is CD8 T cell response to the epitope AH1A5. The experiment can be described thus: Adjuvant mixed with DC-NILV encoding AH1A5 and administered together subcutaneously; ICS/FACS. Format: in vivo, BALB/c mice. The settings on record: adjuvant mixed with DC-NILV AH1A5 1 μg p24, s.c.; 4 or 20 μg GLA, 4 μg LPS; spleen cells day 10. The method, then:
FIG. 2 illustrates the effect of two adjuvants, GLA and lipopolysaccharide (LPS), on the immune response to the CD8 T cell epitope AH1A5. The lentiviral vector encoding AH1A5 (SinVarl FUW AH1A5 (1 μg p24)) was mixed with PBS (control group), 4 μg GLA, 20 μg GLA, or 4 μg LPS and then administered subcutaneously (s.c.) to groups of BALB/C mice. After 10 days, spleen cells were isolated from animals in each group, and the CD8 T cell response was evaluated by determining the level of TNF-α and IFN-γ by intracellular cytokine staining (ICS) followed by fluorescence activated cell sorting (FACS). The values shown are the mean percentage ±SEM of CD8 T cells that are positive for IFN-γ. Data are also shown from spleen cells obtained from mice that were not injected with the lentiviral vector (no LV).
The effect of two adjuvants, GLA and lipopolysaccharide (LPS), on the immune response to the CD8 T cell epitope AH1A5 was determined. DC-NILV encoding AH1A5 (1 μg p24) was mixed with PBS (control group), 4 μg GLA, 20 μg GLA, or 4 μg lipopolysaccaride (LPS) and then administered subcutaneously (s.c.) to groups of BALB/c mice. After 10 days, spleen cells were isolated from animals in each group, and the CD8 T cell response was evaluated by determining the level of TNF-α and IFN-γ by intracellular cytokine staining (ICS) followed by fluorescence activated cell sorting (FACS). […]

Turning to lipopolysaccharide [LPS], the “effect of coadministered adjuvant on vaccine-induced immune responses (CD8 T cells, TNF-α and IFN-γ)” value is listed as “inhibitory effect”.
